The target in test [1] is ROCK-II (Homo sapiens, UniProt O75116). Description: Kinase profiling panel: ROCK-II. It counts as biochemical. To be noted: 5 μM compound; average of triplicate. The protocol: (§1) To further probe the selectivity of the compounds 4 and 15, they were subjected for kinase profiling service for screening against a panel of other kinases selected based on the kinase tree at 5 μM concentration, at or above the IC50 for the two compounds versus PAK in both in vitro and cell-based assays. […] PAK1 was not available for testing using this system thus it was not possible to compare directly in this assay system.
Sequence of ROCK-II (O75116 whole entry, species assumed): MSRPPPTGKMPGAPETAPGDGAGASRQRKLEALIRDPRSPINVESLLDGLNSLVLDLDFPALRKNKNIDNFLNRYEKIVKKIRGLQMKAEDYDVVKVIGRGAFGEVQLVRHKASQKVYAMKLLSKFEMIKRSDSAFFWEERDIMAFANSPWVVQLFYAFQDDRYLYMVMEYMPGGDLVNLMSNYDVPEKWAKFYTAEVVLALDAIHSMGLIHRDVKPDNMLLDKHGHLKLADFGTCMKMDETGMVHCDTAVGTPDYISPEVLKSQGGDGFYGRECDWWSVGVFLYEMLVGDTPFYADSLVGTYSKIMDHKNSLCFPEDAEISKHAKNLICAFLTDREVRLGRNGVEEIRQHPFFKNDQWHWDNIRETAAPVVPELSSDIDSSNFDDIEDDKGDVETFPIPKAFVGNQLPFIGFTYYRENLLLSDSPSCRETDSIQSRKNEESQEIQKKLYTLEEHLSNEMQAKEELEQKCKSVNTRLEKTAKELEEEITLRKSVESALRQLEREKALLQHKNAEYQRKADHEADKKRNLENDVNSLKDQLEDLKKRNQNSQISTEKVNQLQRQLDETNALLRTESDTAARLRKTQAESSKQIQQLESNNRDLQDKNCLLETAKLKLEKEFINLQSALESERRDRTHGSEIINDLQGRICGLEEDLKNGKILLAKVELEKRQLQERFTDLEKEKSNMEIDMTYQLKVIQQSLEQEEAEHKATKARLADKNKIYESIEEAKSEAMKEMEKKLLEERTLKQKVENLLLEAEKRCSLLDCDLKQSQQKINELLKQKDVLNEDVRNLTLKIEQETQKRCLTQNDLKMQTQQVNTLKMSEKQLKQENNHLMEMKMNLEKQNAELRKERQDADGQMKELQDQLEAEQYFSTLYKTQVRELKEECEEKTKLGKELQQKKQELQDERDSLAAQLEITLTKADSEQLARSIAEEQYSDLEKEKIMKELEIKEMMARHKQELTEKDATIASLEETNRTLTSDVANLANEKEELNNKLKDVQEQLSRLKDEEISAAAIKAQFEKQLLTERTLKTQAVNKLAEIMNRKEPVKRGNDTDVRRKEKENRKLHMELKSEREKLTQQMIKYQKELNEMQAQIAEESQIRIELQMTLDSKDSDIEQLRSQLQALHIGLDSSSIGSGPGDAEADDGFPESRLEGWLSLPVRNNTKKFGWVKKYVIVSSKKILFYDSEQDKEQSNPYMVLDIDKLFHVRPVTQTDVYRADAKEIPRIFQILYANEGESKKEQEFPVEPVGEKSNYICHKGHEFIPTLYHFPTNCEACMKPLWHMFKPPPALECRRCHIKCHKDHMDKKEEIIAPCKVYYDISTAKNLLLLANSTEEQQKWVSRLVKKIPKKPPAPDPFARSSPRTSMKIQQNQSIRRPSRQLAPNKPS

The target of test [2] is p70S6K (Homo sapiens, UniProt P23443). As to the kind of experiment: Kinase profiling panel: p70S6K. It counts as biochemical. To be noted: 5 μM compound; for % activity vs. DMSO, p70S6K: average of triplicate. On the procedure:
as §1

Test [3] deals with ERK phosphorylation. As to the kind of experiment: Western blot, ERK phosphorylation in thyroid cancer cells. The class given is cell-based, Human. The note with it: 6 hours. On the procedure: (§2) Protein isolation and Western blot were performed as previously described. Ringel et al., Cancer research 61:6105-6111 (2001). 25 μg of total cell lysates were loaded into 4-12% SDS-PAGE, electrophoresed, and transferred to nitrocellulose membranes for immunoblotting. Primary antibodies against Akt (#9272), phospho-Akt (Thr308) (#2965), p44/42 MAPK (Erk1/2) (#9107), phospho-p44/42 MAPK (Erk1/2) (Thr202/Tyr204) (#4377) and GAPDH (#2118) were obtained from Cell Signaling Technology (Danvers, Mass., USA). Antibody against Vimentin (V6630) and phospho-Ser55 Vimentin were from Sigma-Aldrich, Inc. (St. Louis, Mo.) and MBL Co. (Nagoya, Japan), respectively. Antibodies against total and phosphorylated S6 were from Cell Signaling Technology®.
(§3) The dose-dependency of compounds 4 and 15 was next assessed (FIG. 4). […] Due to the important role that ERK activation plays in thyroid cancer, and its signaling activation by thyroid oncogenes, the effects of the compounds on ERK phosphorylation was also assessed.
A general note: Immunoblotting shows a protein as a band on a membrane.

The target of test [4] is PAK4 (Homo sapiens, UniProt O96013). Description: Kinase profiling panel: PAK4. The class given is biochemical. The note with it: 5 μM compound; average of triplicate. The protocol:
as §1

The subject of test [5] is FTC133 cells. Description: Boyden chamber migration assay, FTC133. It counts as cell-based, Human. The note with it: 2.5 μM or 5.0 μM, 12 hours. The protocol: Cells were grown in media containing 10% FBS. After 24 hours, the medium was aspirated, and media containing 1% FBS was added for 24 hours. The cells were trypsinized for 2 to 5 minutes, washed, and resuspended in media containing 1% FBS. The cell concentration was calculated by hemocytometer. Four hundred μl 1% FBS medium was added into 24-well plates, and a Boyden chamber (8 μm pore) was inserted into each well. Cells were added to each insert, and were allowed to attach in an incubator at 37° C. at 5% CO2 for 2 hours. The cells were then exposed to various concentrations of drugs or control diluent for 3 hours. The inserts were switched to a new well containing media containing 10% FBS, and the chamber was incubated for 12 or 24 hours depending on the migration rate of the cell line. The cells on and under the Boyden chamber membrane were fixed with 3.7% formaldehyde containing 0.05% crystal violet for 15 min after washing cells with PBS. The chambers were washed with distilled water. […] The Q-tips containing the scraped cells and the Boyden chamber containing the non-migrated cells were separately incubated in 80% methanol, shaken at 500 g for 30 minutes, and the extracted dye was measured at 570 nm. Migration was quantified as the ratio of the migrated cells over the total cells (non-migrated plus […]). […]

Test [6] has as its target MEK1 (Homo sapiens, UniProt Q02750). As to the kind of experiment: Kinase profiling panel: MEK1. It counts as biochemical. To be noted: 5 μM compound; average of triplicate. The protocol: as §1
In test [7] the test system is S6 phosphorylation. Description: Western blot, S6 phosphorylation in thyroid cancer cells. It counts as cell-based, Human. The note with it: for S6 phosphorylation, BCPAP and TPC1 cells: BCPAP and TPC1 cells (FIG. 4B). On the procedure: as §2, §3
The target in test [8] is PAK2 (Homo sapiens, UniProt Q13177). Description: Kinase profiling panel: PAK2. The class given is biochemical. The note with it: 5 μM compound; average of triplicate. The protocol: as §1
Sequence of PAK2 (Q13177 whole entry, species assumed): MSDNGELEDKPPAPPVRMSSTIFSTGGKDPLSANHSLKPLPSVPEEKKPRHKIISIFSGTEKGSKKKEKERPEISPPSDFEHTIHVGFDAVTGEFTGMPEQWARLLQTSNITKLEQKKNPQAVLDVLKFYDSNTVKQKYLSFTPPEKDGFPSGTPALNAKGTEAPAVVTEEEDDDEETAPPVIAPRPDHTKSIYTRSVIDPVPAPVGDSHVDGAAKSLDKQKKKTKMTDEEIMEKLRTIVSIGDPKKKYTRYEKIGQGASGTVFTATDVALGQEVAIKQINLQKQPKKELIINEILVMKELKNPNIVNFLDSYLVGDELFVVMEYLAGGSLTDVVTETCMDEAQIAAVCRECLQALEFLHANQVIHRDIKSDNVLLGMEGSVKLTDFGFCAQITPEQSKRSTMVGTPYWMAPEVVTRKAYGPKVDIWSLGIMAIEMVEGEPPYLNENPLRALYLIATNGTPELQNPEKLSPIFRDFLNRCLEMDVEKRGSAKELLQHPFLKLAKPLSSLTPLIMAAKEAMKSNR
Test [9] has as its target Src(T341M) (Homo sapiens, UniProt P12931, T341M). As to the kind of experiment: Kinase profiling panel: Src(T341M). The class given is biochemical. The note with it: 5 μM compound; average of triplicate. The protocol:
as §1

Test [10] concerns the target EGFR (Homo sapiens, UniProt P00533). Description: Kinase profiling panel: EGFR. The class given is biochemical. The note with it: 5 μM compound; average of triplicate. The protocol:
as §1

The target of test [11] is PAK5 (Homo sapiens, UniProt Q9P286). Description: Kinase profiling panel: PAK5. The class given is biochemical. The note with it: 5 μM compound; average of triplicate. On the procedure: as §1
Sequence of PAK5 (Q9P286 whole entry): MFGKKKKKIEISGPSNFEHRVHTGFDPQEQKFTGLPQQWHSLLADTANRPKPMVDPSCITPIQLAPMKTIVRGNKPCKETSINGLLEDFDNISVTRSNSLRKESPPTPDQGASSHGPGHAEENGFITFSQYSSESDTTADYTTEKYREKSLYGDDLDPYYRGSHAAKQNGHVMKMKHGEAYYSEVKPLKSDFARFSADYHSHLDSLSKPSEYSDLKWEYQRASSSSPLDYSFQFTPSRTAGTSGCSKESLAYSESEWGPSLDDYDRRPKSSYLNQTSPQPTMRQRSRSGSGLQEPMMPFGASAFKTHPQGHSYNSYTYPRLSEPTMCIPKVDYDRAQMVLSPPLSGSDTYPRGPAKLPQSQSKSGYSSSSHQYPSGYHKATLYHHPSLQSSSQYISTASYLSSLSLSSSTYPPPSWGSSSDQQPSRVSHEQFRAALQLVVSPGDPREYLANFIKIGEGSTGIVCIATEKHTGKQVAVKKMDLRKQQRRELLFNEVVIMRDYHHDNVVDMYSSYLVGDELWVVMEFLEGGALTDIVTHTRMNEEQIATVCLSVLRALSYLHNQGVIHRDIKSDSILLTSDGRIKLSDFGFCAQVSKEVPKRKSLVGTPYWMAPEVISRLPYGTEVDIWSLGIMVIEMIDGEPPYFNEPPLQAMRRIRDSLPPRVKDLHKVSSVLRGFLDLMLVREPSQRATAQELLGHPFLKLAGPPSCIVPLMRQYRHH
For test [12], the target named is GSK3α (Homo sapiens, UniProt P49840). Description: Kinase profiling panel: GSK3α. The class given is biochemical. The note with it: 5 μM compound; average of triplicate. The protocol:
as §1

For test [13], the target named is PKBα (Homo sapiens, UniProt P31749). Description: Kinase profiling panel: PKBα. The class given is biochemical. The note with it: read-out: % activity vs. DMSO, PKBα. The protocol: as §1

Entries after “also recorded” stand apart in the source; their conditions may differ. Read-outs that look alike come from different tables or passages of the source.

The results in this text go back to patent US9156790B2, “Anticancer P21-activated kinase inhibitors” (Ohio State Innovation Foundation, priority 2013, dated 2015).

Sequence of p70S6K (P23443 whole entry): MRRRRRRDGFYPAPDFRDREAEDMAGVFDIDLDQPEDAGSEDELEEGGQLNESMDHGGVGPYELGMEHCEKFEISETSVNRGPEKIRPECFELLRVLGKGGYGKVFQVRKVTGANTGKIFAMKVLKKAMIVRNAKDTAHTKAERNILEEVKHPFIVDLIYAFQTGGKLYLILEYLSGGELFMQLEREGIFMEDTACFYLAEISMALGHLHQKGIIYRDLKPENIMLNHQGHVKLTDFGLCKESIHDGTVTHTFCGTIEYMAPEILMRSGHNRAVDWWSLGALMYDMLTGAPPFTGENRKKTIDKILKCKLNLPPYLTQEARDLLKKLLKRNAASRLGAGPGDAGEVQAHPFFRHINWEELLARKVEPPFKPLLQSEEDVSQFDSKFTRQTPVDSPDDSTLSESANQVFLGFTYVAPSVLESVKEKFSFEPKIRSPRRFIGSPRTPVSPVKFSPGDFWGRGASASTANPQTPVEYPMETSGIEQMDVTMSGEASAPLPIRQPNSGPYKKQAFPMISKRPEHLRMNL
Sequence of EGFR (P00533 25-1210, species assumed): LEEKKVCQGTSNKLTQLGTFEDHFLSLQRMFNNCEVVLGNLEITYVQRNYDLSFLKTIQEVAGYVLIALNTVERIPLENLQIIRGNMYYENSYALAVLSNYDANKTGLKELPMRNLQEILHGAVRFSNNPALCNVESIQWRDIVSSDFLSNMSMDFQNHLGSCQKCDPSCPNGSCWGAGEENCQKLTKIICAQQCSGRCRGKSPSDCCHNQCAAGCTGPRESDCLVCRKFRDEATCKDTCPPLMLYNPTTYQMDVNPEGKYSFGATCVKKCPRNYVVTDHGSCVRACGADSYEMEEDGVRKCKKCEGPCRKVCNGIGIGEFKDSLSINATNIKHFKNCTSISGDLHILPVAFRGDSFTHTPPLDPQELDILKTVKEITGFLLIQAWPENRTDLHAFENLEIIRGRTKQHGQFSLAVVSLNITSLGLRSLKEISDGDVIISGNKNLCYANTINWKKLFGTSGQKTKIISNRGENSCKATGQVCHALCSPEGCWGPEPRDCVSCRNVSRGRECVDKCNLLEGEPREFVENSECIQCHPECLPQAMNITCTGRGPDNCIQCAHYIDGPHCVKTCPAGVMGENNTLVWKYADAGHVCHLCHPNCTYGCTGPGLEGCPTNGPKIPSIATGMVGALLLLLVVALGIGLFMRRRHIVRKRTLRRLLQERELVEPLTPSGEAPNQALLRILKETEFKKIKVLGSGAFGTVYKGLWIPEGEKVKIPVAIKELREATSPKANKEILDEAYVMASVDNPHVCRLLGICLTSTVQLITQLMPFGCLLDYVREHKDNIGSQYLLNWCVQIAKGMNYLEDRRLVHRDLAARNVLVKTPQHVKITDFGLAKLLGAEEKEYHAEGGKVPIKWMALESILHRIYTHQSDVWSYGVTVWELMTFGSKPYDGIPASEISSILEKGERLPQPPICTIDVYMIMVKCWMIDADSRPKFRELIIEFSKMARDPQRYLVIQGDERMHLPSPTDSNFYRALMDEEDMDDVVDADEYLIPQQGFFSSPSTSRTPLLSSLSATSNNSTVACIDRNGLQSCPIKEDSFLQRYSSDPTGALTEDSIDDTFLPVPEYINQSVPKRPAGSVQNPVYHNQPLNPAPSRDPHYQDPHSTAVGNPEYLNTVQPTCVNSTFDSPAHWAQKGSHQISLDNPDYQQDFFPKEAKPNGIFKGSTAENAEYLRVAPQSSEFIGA
Sequence of MEK1 (Q02750 whole entry, species assumed): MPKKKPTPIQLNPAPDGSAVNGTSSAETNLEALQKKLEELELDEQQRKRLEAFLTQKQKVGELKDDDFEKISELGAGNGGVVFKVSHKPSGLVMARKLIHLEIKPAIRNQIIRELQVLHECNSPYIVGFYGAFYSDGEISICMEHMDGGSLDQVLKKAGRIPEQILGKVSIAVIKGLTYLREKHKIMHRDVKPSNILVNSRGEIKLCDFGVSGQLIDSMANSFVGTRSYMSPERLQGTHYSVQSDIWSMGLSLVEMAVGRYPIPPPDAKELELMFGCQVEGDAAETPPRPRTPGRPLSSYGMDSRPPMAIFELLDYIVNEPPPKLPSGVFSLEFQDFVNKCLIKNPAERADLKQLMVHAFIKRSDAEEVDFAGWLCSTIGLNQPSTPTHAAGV

In general, inhibition refers to the change of the read-out against control, counted positive when it falls. Consider `NCCC(=O)Nc1ccc(-n2nc(C(F)(F)F)cc2-c2ccc3ccc4ccccc4c3c2)cc1` [Compound 4, 3-amino-N-(4-(5-(phenanthren-3-yl)-3-(trifluoromethyl)-1H-pyrazol-1-yl)phenyl)-propanamide], for which the “% activity vs. DMSO, ROCK-II” value in test [1] is reported as 79%. Moreover, in [2], the inhibition at 5 µM was more than 50% and the “% activity vs. DMSO, p70S6K” value stood at 28%. Moreover, the “ERK phosphorylation, all three cell lines” value in test [3] (dose-response, BCPAP, FTC133 and TPC1 cells) was “no demonstrable effects on ERK phosphorylation”. Further, the “% activity vs. DMSO, PAK4” value in test [4] is 101%. For the same compound, the “Migration of FTC133 cells” value in [5] is recorded as “not inhibited; also recorded: neither compound significantly inhibited migration”. Besides, the “% activity vs. DMSO, MEK1” value in test [6] stood at 106%. Moreover, in [7], the “S6 phosphorylation, BCPAP and TPC1 cells” value is “inhibited this phosphorylation”. For the same compound, the “% activity vs. DMSO, PAK2” value in test [8] is 70%. In addition, in test [9], the “% activity vs. DMSO, Src(T341M)” value is recorded as 105%. Moreover, the “% activity vs. DMSO, EGFR” value in test [10] was 99%. For the same compound, the “% activity vs. DMSO, PAK5” value in test [11] is recorded as 114%. Further, in [12], the “% activity vs. DMSO, GSK3α” value was determined as 133%. Besides, the remaining activity at 5 µM in test [13] (5 μM compound, average of triplicate) stood at 103%.
`CC(C)NC(=O)c1cc(-c2ccc3ccc4ccccc4c3c2)n(-c2ccc(NC(=O)CN)cc2)n1` [Compound 15, 1-(4-(2-Aminoacetamido)phenyl)-N-isopropyl-5-(phenanthren-3-yl)-1H-pyrazole-3-carboxamide]: the “% activity vs. DMSO, ROCK-II” value in test [1] came out at 96%. Besides, in test [2], the inhibition at 5 µM is more than 50% and the “% activity vs. DMSO, p70S6K” value was determined as 38%. For the same compound, the “ERK phosphorylation, BCPAP cells” value in [3] (2.5 μM, BCPAP cells (BRAF V600E)) is given as “inhibited ERK phosphorylation”. Besides, the “ERK phosphorylation, other two cell lines” value in test [3] (FTC133 and TPC1 cells) is “at higher concentrations”. The “% activity vs. DMSO, PAK4” value in test [4] is 105%. In addition, in [5], the “Migration of FTC133 cells” value was “not inhibited; also recorded: neither compound significantly inhibited migration”. In addition, the “% activity vs. DMSO, MEK1” value in [6] came to 101%. In addition, the “S6 phosphorylation, BCPAP and TPC1 cells” value in test [7] is given as “inhibited 56 phosphorylation”. Besides, the “S6 phosphorylation, FTC133 cells” value in test [7] (FTC133 cells (FIG. 4B)) was “inhibited 56 phosphorylation”. In test [8], the “% activity vs. DMSO, PAK2” value was 81%. The “% activity vs. DMSO, Src(T341M)” value in [9] was determined as 94%. The “% activity vs. DMSO, EGFR” value in test [10] turned out to be 100%. The “% activity vs. DMSO, PAK5” value in [11] was found to be 104%. In addition, the “% activity vs. DMSO, GSK3α” value in test [12] is recorded as 118%. In [13], the remaining activity at 5 µM is 99%.
